The values below come from paper PMC9961652 (International Journal of Molecular Sciences, 2023).

One assay has as its system washed human platelets. Nature of the assay: Collagen-induced platelet aggregation, light transmission aggregometry (Born method). Format: cell-based. The conditions noted are these: for activity at 20 µM / IC50: Platelet; for activity at 20 µM: compound 20 µM, means ± SDs of three experiments, 100% = agonist alone; for IC50: Homo sapiens; for activity in collagen-induced platelet aggregation (SAR statement): relative to the quinoline analogs. Here is the method:
Light transmission aggregometry, i.e., the Born method, was used to determine in vitro antiplatelet aggregation activity using collagen as the agonist for platelet aggregation. Collagen was selected as the agonist, since it is the most thrombogenic component of the subendothelial layer. Collagen also serves as a substrate for platelet adhesion and as an inducer of platelet activation.
All experiments using human blood from healthy volunteers were performed according to the protocols approved by the Institutional Review Board at Cincinnati Children’s Hospital Medical Center, Cincinnati, Ohio. Each volunteer was required to sign an informed consent form approved by the IRB. Procedures for drawing human blood, isolating platelet-rich plasma (PRP), and preparing washed platelet suspensions were the same as those previously reported. […] PRP was obtained by means of the centrifugation of blood at 1400 rpm for 15 min at room temperature. PRP was centrifuged at 4000 rpm for 10 min at room temperature, and the platelet pellet was resuspended in HEPES Tyrode’s solution (pH 7.4) without calcium. Platelets were counted using Hemavet 950FS (Drew Scientific, Oxford, CT, USA), and the count was adjusted to 2.5 × 10^8/mL for aggregation studies.
The in vitro antiplatelet activity of the compounds was assayed on washed human platelets using light transmission aggregometry. Platelet aggregation was performed using a 4-channel Lumi-aggregometer (Chronolog, PA, USA) at 37 °C and stirring speed of 900 rpm. A volume of 250 µL of washed human platelets (2.5 × 10^8/mL) was pre-warmed to 37 °C along with the compounds or DMSO (0.1%) for 2 min before the addition of agonists such as collagen, AA, U46619 (a stable synthetic analog of thromboxane A2), ADP, and thrombin. For ATP secretion, platelets were pre-incubated with a luciferin/luciferase kit (Chrono-lume®) for 30 s at 37 °C before the addition of the agonist. The reactions were allowed to proceed for at least 4 min, and the results of platelet aggregation and ATP secretion were determined using Aggrolink software. Platelet aggregation was expressed as the maximum change in the light transmission, where the 100% value corresponded to treatment with the agonist alone. Compounds were evaluated in triplicate at nine compound concentrations ranging from 50 µM to 1 µM.

Another assay concerns RhoA. Kind of assay: RhoA-GTP formation, GST-Rhotekin effector pull-down assay in collagen-stimulated platelets. The conditions noted are these: 20 µM, 2 min pre-incubation; collagen 1 µg/mL for 4 min. Type of assay: cell-based, human. On the procedure:
Next, the ability of the six compounds to suppress RhoA activity in platelets was assessed by subjecting them to a GST (Glutathione-S-transferase)-Rhotekin effector pull-down assay. The compounds were incubated with washed human platelets for 2 min before being stimulated with 1 µg/mL collagen. The analogs inhibited the activation of RhoA at the 20 µM concentration (Figure 2A,B). […] After confirming that these analogs could prevent RhoA activation and the phosphorylation of the MLC, their ability to disrupt complex-formation between RhoA and LARG was tested. […] These findings indicate that the active analogs inhibit RhoA activation by disrupting the binding between RhoA and its GEF.
(A,B) Washed human platelets were incubated with collagen (1 µg/mL) for 4 min, and the levels of RhoA-GTP formation were quantified with a GST-Rhotekin effector pull-down assay. The platelets were pre-incubated with 20 µM UC-177618, UC-177619, UC-177628, UC-177629, […], or […] for 2 min before being stimulated with collagen. The addition of ice-cold lysis buffer terminated the reaction. […] Relative amounts of the GTP-bound form of RhoA were quantified with densitometry measurements of total RhoA (T-RhoA) and normalized to untreated platelets. (C,D) The addition of 20 µM of active Rhosin-related compounds to washed human platelets 2 min before stimulation with collagen blocked the phosphorylation of the myosin light chain (p-MLC). The reactions were terminated after 4 min by adding 4x Laemmli sample buffer. The samples were processed for Western blotting and probed for MLC and p-MLC, and phosphorylation was quantified by measuring the densitometry of total MLC (T-MLC). The differences between DMSO- and Rhosin-related compounds were analyzed with t-test, and the results are shown as means ± SDs of three independent experiments. (* p < 0.05, ** p < 0.01, *** p < 0.001, and **** p < 0.0001).
The relative levels of RhoA-GTP in washed human platelets were quantified with effector domains GST-Rhotekin pull-down assays as previously reported. A volume of 250 µL of washed human platelets (2.5 × 10^8/mL) was pre-warmed to 37 °C along with the compounds or DMSO (0.1%) for 2 min before being stimulated with collagen (1 µg/mL). The reactions were terminated 4 min after collagen stimulation by adding ice-cold lysis buffer (20 mM Tris·HCl (pH 7.6), 100 mM NaCl, 1% Triton X-100, 0.2% Sodium Deoxycholate, 10 mM MgCl2, 1 mM dithiothreitol, 1x protease inhibitor cocktail, and 1x phosphatase inhibitor cocktail). The supernatants were collected and subjected to the GST-Rhotekin pull-down assay. The total cell lysates were also blotted in parallel. GTP-bound RhoA was quantitatively detected with Western blotting using an anti-RhoA antibody. The relative amounts of RhoA were quantified with densitometry measurements and normalized to the untreated platelets.

Where [1] appears, read: washed human platelets, read-out: % Platelet Aggregation, Collagen (1 µg/mL).
Where [2] appears, read: washed human platelets, read-out: % Platelet Aggregation, Collagen (5 µg/mL).
Setting [3] is: collagen 1 µg/mL, washed human platelets, dose-response curves, read-out: IC50 (95% CI) of platelet aggregation.
Setting [4] is: collagen-induced platelet aggregation, compounds without IC50 determination estimated from percent inhibition at 20 µM, read-out: IC50 (SAR table).

Like-named read-outs stand apart in the source and are kept apart here.

Regarding `CSCCNc1nc(SCCC(F)(F)F)nc2c1ncn2[C@@H]1O[C@H](COP(=O)(O)OP(=O)(O)C(Cl)(Cl)P(=O)(O)O)[C@@H](O)[C@H]1O` [Cangrelor, reference compound], the activity at 20 µM in the assay on washed human platelets (setting [1]) came out at 27.7 ± 2.52%; in the assay with washed human platelets (setting [2]), 63.3 ± 4.16%.
In the same order, the values of `CN(Nc1ccnc2cc(C(F)(F)F)ccc12)C(N)=S` [UC177623] are 84.3 ± 9% and 90.7 ± 6.2%.
Turning to `O=C1OCCN1Nc1ccnc2ccccc12` [UC-177613], the activity at 20 µM worked out at 84.3 ± 15.5% in the assay with washed human platelets (setting [1]) and 95.2 ± 4.9% in the assay on washed human platelets (setting [2]).
The corresponding values for `O=C1OCCN1Nc1ccnc2cc(C(F)(F)F)ccc12` [UC-177614] are 87.3 ± 9.6% and 90 ± 3.1%.
By IC50 is commonly meant the concentration that gives 50% inhibition. Regarding `S=C(NNc1ccnc2ccccc12)Nc1ccccc1` [UC-177615], the IC50 with washed human platelets (setting [3]) amounted to 5.47 µM. Further, the activity at 20 µM stood at 9.7 ± 6% in the assay on washed human platelets (setting [1]) and 11.4 ± 9.9% in the assay with washed human platelets (setting [2]).
In the same order, the values of `O=C(NNc1ccnc2ccccc12)Nc1ccccc1` [UC-177616] are 4.9 µM, 11.7 ± 2.3% and 10.6 ± 3.6%.
For the compound `O=C(NNc1ccnc2ccccc12)c1ccc(Cl)c(Cl)c1` [UC-177617], the concentration for half-maximal inhibition (IC50) with washed human platelets (setting [4]) is 5.64 µM. Besides, the activity at 20 µM in the assay with washed human platelets (setting [1]) amounted to 13 ± 10.4%; in the assay with washed human platelets (setting [2]), 26.8 ± 9%.
In the case of `O=C(NNc1ccnc2cc(C(F)(F)F)ccc12)c1cc2ccccc2[nH]1` [UC-177627], the IC50 in the assay on washed human platelets (setting [3]) is 2.22 µM; with washed human platelets (setting [4]) it was 2.23 µM. Moreover, the values for the activity at 20 µM in the assay with washed human platelets (setting [1]) and in the assay on washed human platelets (setting [2]) were 17.7 ± 11.4% and 19 ± 17.7%, respectively.
`O=C(NNc1ccnc2c(C(F)(F)F)cccc12)c1cc2ccccc2[nH]1` [UC-177628]: in the assay with washed human platelets (setting [4]), the IC50 was 2.84 µM. Moreover, the activity at 20 µM turned out to be 8.7 ± 4.7% in the assay on washed human platelets (setting [1]) and 12.3 ± 9% with washed human platelets (setting [2]). Also, in the assay on RhoA, the RhoA-GTP formation entry was “inhibited RhoA-GTP formation”.
With `O=C(NNc1ccnc2cc(Cl)ccc12)c1cc2ccccc2[nH]1` [UC-177629], in the assay with washed human platelets (setting [4]), the IC50 is 2.39 µM. Besides, the activity at 20 µM with washed human platelets (setting [1]) amounted to 7.3 ± 5.9%; with washed human platelets (setting [2]) it was 10.8 ± 3%. Moreover, the RhoA-GTP formation entry with RhoA is given as “inhibited RhoA-GTP formation”.
Regarding `Cc1cc(NNC(=O)c2cc3ccccc3[nH]2)nc2ccccc12` [UC-177630], in the assay with washed human platelets (setting [4]), the IC50 was greater than 20 µM. Further, the activity at 20 µM worked out at 73 ± 21.6% in the assay on washed human platelets (setting [1]) and 85 ± 15.3% with washed human platelets (setting [2]). The “activity in collagen-induced platelet aggregation (SAR statement)” value with washed human platelets is listed as “lost all activity”.
`Cc1ccc(C(=O)NNc2ccnc3ccccc23)cc1` [UC-177631]: the IC50 with washed human platelets (setting [4]) is greater than 20 µM. Further, the activity at 20 µM with washed human platelets (setting [1]) stood at 87.7 ± 13.1%; in the assay on washed human platelets (setting [2]), 90.4 ± 3.7%.
In the same order, the values of `Cc1ccc(C(=O)NNc2ccnc3cc(C(F)(F)F)ccc23)cc1` [UC-177632] are greater than 20 µM, 86.7 ± 11% and 93.1 ± 12.8%.
Take `Cc1ccc(C(=O)NNc2ccnc3c(C(F)(F)F)cccc23)cc1` [UC-177633]: the IC50 in the assay on washed human platelets (setting [3]) was 2.38 µM; in the assay with washed human platelets (setting [4]), 2.34 µM. In addition, the values for the activity at 20 µM in the assay with washed human platelets (setting [1]) and in the assay on washed human platelets (setting [2]) were 3.3 ± 3.2% and 10.1 ± 8.3%, respectively. Further, in the assay on RhoA, the RhoA-GTP formation entry is “inhibited RhoA-GTP formation”.
In the case of `Cc1ccc(C(=O)NNc2ccnc3cc(Cl)ccc23)cc1` [UC-177634], the half-maximal inhibitory concentration (IC50) in the assay with washed human platelets (setting [4]) was 4.59 µM. The activity at 20 µM was found to be 17 ± 2.6% with washed human platelets (setting [1]) and 24.5 ± 3.9% in the assay on washed human platelets (setting [2]).
`Cc1ccc(C(=O)NNc2cc(C)c3ccccc3n2)cc1` [UC-177635]: the IC50 in the assay on washed human platelets (setting [4]) was greater than 20 µM. Further, the activity at 20 µM in the assay on washed human platelets (setting [1]) turned out to be 79.1 ± 7%; in the assay on washed human platelets (setting [2]), 90.1 ± 8.3%.
Turning to `O=C1OCCN1NC1CCOc2ccc(-n3cc[nH]c3=S)cc21` (centres unmarked) [UC-177639], the activity at 20 µM was 80 ± 17.3% in the assay with washed human platelets (setting [1]) and 90.4 ± 9.1% in the assay with washed human platelets (setting [2]).
On to `O=C(NNC1CCc2ccccc21)c1cc2ccccc2[nH]1` (centres unmarked) [UC-178838], for which the IC50 in the assay on washed human platelets (setting [4]) is 3.55 µM. The figures for the activity at 20 µM in the assay on washed human platelets (setting [1]) and with washed human platelets (setting [2]) were 7.3 ± 5.8% and 13.7 ± 7.9%, respectively. Besides, in the assay with washed human platelets, the “activity in collagen-induced platelet aggregation (SAR statement)” value is on record as “nearly equipotent”.
For the compound `Cc1[nH]c2ccccc2c1/C=N/NC(=O)c1cccnc1` [UC-390484], the activity at 20 µM came out at 81 ± 14% in the assay with washed human platelets (setting [1]) and 88.1 ± 10% in the assay on washed human platelets (setting [2]).
The corresponding values for `COc1ccc2cc(/C=N/NC(=O)Cc3c[nH]c4ccccc34)ccc2c1` [UC-391695] are 79 ± 8% and 84.8 ± 12.1%.
On to `COc1cc(/C=N/NC(=O)C2COc3ccccc3O2)ccc1O` (centres unmarked) [UC-392453], for which the activity at 20 µM with washed human platelets (setting [1]) is 90.7 ± 8.5%; in the assay with washed human platelets (setting [2]), 94.7 ± 11.2%.
On to `O=S(=O)(Nc1cc(C(F)(F)F)ccc1Cl)c1cccc2cccnc12` [UC-406794], for which the IC50 in the assay on washed human platelets (setting [3]) came to 5.2 µM. Besides, the values for the activity at 20 µM in the assay on washed human platelets (setting [1]) and in the assay on washed human platelets (setting [2]) were 12.7 ± 7.2% and 25 ± 5.2%, respectively.
With `Cc1ccc(C)c(OCC(=O)N/N=C/c2cn(Cc3ccccc3)c3ccccc23)c1C` [UC-436352], the activity at 20 µM with washed human platelets (setting [1]) is 84.7 ± 15.5%; with washed human platelets (setting [2]), 89 ± 2.5%.
For the compound `O=C(N/N=C/c1ccc(O)cc1)c1cc2ccccc2[nH]1` [UC-612333], the activity at 20 µM in the assay on washed human platelets (setting [1]) turned out to be 70 ± 5.6%; in the assay on washed human platelets (setting [2]) it was 78.6 ± 14.9%.
In the same order, the values of `CN(Cc1ccccc1)C(=O)C(N)Cc1c[nH]c2ccccc12` (centres unmarked) [UC-651009] are 86 ± 1.7% and 89.2 ± 10.6%.
In the same order, the values of `N[C@@H](Cc1c[nH]c2ccccc12)C(=O)Nc1ccc2oc(C(=O)O)cc2c1` [UC-830013] are 93 ± 10.8% and 91.3 ± 14.7%.
In the case of `S=C(NNc1ccnc2cc(Cl)ccc12)Nc1ccccc1Cl` [UC-936377], the activity at 20 µM in the assay with washed human platelets (setting [1]) stood at 61.3 ± 4.5%; with washed human platelets (setting [2]), 71.7 ± 5.3%.
In the same order, the values of `Cc1[nH]c2ccccc2c1CCNC(=O)c1ccc2nccnc2c1` [UC-984842] are 91.3 ± 10.5% and 95.9 ± 6.2%.
